What is called MIC is the lowest concentration found to suppress growth. The low end stands for inhibition by little substance, the high end for a need for much substance. The GI50 is the concentration that inhibits growth by half. Lower therefore signals greater sensitivity of the cells.

Converted amounts (≈) assume the structure as drawn.

Data on one compound can be found in patent US7375088B2, “Polyene polyketides, processes for their production and their use as a pharmaceutical” (Thallion Pharmaceuticals Inc., priority 2003, dated 2008).

In assay [1] the test system is Candida glabrata LSPQ 0250. As to the kind of experiment: MIC broth microdilution assay. As to conditions: Nakaseomyces glabratus. Background: In broth dilution the organism is exposed to a series of concentrations in liquid medium.
Experimental: (§1) Test compound preparation: The test article was prepared as 100× stock solutions in DMSO, with concentrations ranging from 3.2 mg/ml to 0.0625 mg/ml (a two-fold dilution series over 10 points). The first dilution (3.2 mg/ml) was prepared by resuspending 0.5 mg of each test article in 156.25 μl of DMSO. The stock is then serially diluted by two-fold increments to obtain the desired concentration range.
(§2) Inoculum preparation: For fungal strains, the inoculum was prepared as follows. From an overnight culture in Yeast Media broth, cell density was adjusted in 0.85% saline to 0.5 McFarland. This procedure yielded a stock suspension of about 5×10^6 cells/ml. Following thorough vortexing, a working suspension was prepared by diluting the stock 1:50 in RPMI 1640, and then further diluting it 1:20 with RPMI 1640 to obtain the 2× test inoculum (about 5×10^3 cells/ml). For filamentous fungi, the inoculum was prepared as follows. […]
(§3) 50 μl of the final cell dilution (yeast, filamentous fungi or bacteria) of each indicator strain was added to each corresponding well of the microplate containing 50 μl of diluted drug or media alone. […] MIC readings were determined at 24 and 48 hrs for the Candida and Aspergillus species, and at 48 and 72 hrs for Cryptococcus neoformans. MIC readout for each indicator was determined as the lowest concentration of test compound resulting in total absence of growth.
For the next assay, the system named is C. albicans SC5314. Briefly: Mouse model of disseminated candidiasis (survival). As to conditions: for Median survival: CD-1 mice infected i.v. with C. albicans SC5314, observed 21 days. It is filed as in vivo. The method, then: Compound 2(a) was provided as a dry powder with an estimated purity of 95+%. Fungizone (amphotericin B desoxycholate, to be used as a comparitor), was also provided as a dry powder with an estimated purity of 95+%. The compound 2(a) and Fungizone were stored as dry powders at −80° C. until the day of administration.
Female mice (species Mus musculus, strain CD-1, Charles River) with body weight range of 22-24 g were used in the study. […] All animal experiments were performed at the Ste-Justine Hospital (Montreal, Quebec) according to ethical guidelines of animal experimentation of the ethical committee of the hospital. During the study, dead or apparently sick animals were promptly removed and sick mice were euthanized upon removal from the cage.
The animals were maintained in rooms under controlled conditions of temperature (23±2° C.), humidity (45±5%), photoperiodicity (12 hrs light/12 hrs dark) and air exchange. The animals were housed in polycarbonate cages (4/single cage) equipped to provide food and water. Sterile wood shavings were used for animal bedding and the bedding was replaced every other day. Food (Harlam Tecklab, Canada) and autoclaved tap water was provided ab libitum, the food being placed in the metal lid on top of the cage. Water bottles were equipped with rubber stoppers and sipper tubes and were cleaned, sterilized and replaced once a week.
Six groups of mice (10 mice per group) were infected intravenously with 3×10^6 CFU of C. albicans SC5314 as previously described (see Dubois, N., et al., Microbiology 1998, 144: 2299-2310). Twenty-four hours after infection, each individual group of mice was treated with Compound 2(a) (1 or 3 mg/kg i.p.), Fungizone (0.25, 0.5 or 1 mg/kg i.p.) as comparitor, or sham-treated with sterile water containing 5% dextrose and 3% DMSO. Each animal received 100 μl of test solution.
The treatment regimen was repeated once daily for a total of 4 days. The mice were observed twice daily for signs of morbidity over 21 days. Moribund animals were scored as non-survivors and euthanized by CO2 inhalation. […]

Another assay deals with HCC2998/colon carcinoma. As to the kind of experiment: NCI in vitro antiproliferative screen (SRB, GI50). It is filed as cell-based, human. How it is done: In Vitro antipoliferative study of Compound 2a was performed by the National Cancer Institute (National Institutes of Health, Bethesda, Md., USA) against a panel of cancer cell lines in order to determine the concentrations needed to obtain a 50% inhibition of cell proliferation (IC50). The operation of this unique screen utilizes 60 different human tumor cell lines, representing leukemia, melanoma, and cancers of the lung, colon, brain, ovary, breast prostate and kidney. Compound 2(a) was provided as a lyophilized powder with an estimated purity of 90+%. The compound was stored at −20° C. until day of use.
The human tumor cell lines of the cancer-screening panel were grown in RPMI 1640 medium containing 5% fetal bovine serum and 2 mM L-glutamine. For a typical screening experiment, cells were inoculated into 96 well microtiter plates in 100 μl at plating densities ranging from 5000 to 40,000 cells/well depending on the doubling time of individual cell lines (Table 8). After cell inoculation, the microtiter plates were incubated at 37° C., under 5% CO2, 95% air and 100% relative humidity for 24 hours prior to addition of the experimental drugs.
After 24 hours, two plates of each cell line were fixed in situ with TCA, to represent a measurement of the cell population for each cell line at the time of drug addition (Tz). Compound 2(a) was solubilized in dimethyl sulfoxide at 400-fold the desired final maximum test concentration and stored frozen prior to use. At the time of drug addition, an aliquot of frozen concentrate was thawed and diluted to twice the desired final maximum test concentration with complete medium containing 50 μg/ml gentamicin. Additional four, serial dilutions were made to provide a total of five drug concentrations plus control. Aliquots of 100 μl of these different drug dilutions were added to the appropriate microtiter wells already containing 100 μl of medium, resulting in the required final drug concentrations (2.5×10^−5 M to 2.5×10^−9 M).
Following drug addition, the plates were incubated for an additional 48 hours at 37° C., 5% CO2, 95% air, and 100% relative humidity. For adherent cells, the assay was terminated by the addition of cold TCA. Cells were fixed in situ by the gentle addition of 50 μl of cold 50% (w/v) TCA (final concentration, 10% TCA) and incubation for 60 minutes at 4° C. The supernatant was discarded, and the plates were washed five times with tap water and air-dried. Sulforhodamine B (SRB) solution (100 μl) at 0.4% (w/v) in 1% acetic acid was added to each well, and plates were incubated for 10 minutes at room temperature. After staining, unbound dye was removed by washing five times with 1% acetic acid and the plates were air-dried. Bound stain was subsequently solubilized with 10 mM trizma base, and the absorbance was read on an automated plate reader at a wavelength of 515 nm. For suspension cells, the methodology was the same except that the assay was terminated by fixing settled cells at the bottom of the wells by gently adding 50 μl of 80% TCA (final concentration, 16% TCA).
The growth inhibitory power of compound 2(a) was measured by NCl utilizing the GI50 value, rather than the classical IC50 value. The GI50 value emphasizes the correction for the cell count at time zero and, using the seven adsorbance measurements [time zero (Tz), control growth (C), and the test growth in the presence of drug at each of the five concentration levels (Ti)], GI50 is calculated as [(Ti−Tz)/(C−Tz)×100=−50. which is the drug concentration resulting in a 50% reduction in the net protein increase (as measured by SRB staining) in control cells during the drug incubation.

A further assay concerns Aspergillus fumigatus. Briefly: Disk diffusion assay (MEC and zone of inhibition). It is filed as cell-based. On the technique in general: In agar diffusion tests the substance spreads into inoculated agar from a disc or well.
Assay [2] has as its system Candida albicans ATCC 10231. Briefly: MIC broth microdilution assay.
Experimental: as §1, §2, §3
Assay [3] concerns Cryptococcus neoformans ATCC 32045. As to the kind of experiment: MIC broth microdilution assay.
Experimental: as §1, §2, §3

For `CC(C=CCCC=CC=CC=CC=CC(=O)NC1=C(O)CCC1=O)C(O)C(C)C(O)C=CC=CC=CC=CC=CCC(OC1OC(C)C(O)C(O)C1O)C(C)C(=O)CC(O)CC(O)CC(O)C=CCC(O)CC(O)CC(O)CC(O)C=CCC(O)CC(O)CCCN` (centres unmarked) [Compound 2(a), 56-Amino-15,17,33,35,37,41,43,45,47,51,53-undecahydroxy-14,16,30-trimethyl-31-oxo-29-(3,4,5-trihydroxy-6-methyl-tetrahydro-pyran-2-yloxy)-hexapentaconta-2,4,6,8,12,18,20,22,24,26,38,48-dodecaenoic acid (2-hydroxy-5-oxo-cyclopent-1-enyl)-amide], the MIC in assay [1] (LSPQ0250, 24 h) amounted to 4 mg/L (≈ 3.08 µM); in assay [1] (LSPQ0250, 48 h), 8 mg/L (≈ 6.17 µM); in assay [2] (ATCC10231, 24 h) it was 4 mg/L (≈ 3.08 µM); in assay [2] (ATCC10231, 48 h), 4 mg/L (≈ 3.08 µM); in assay [3] (ATCC32045, 48 h) it was 2 mg/L (≈ 1.54 µM); in assay [3] (ATCC32045, 72 h), 4 mg/L (≈ 3.08 µM). For the same compound, the Median survival in the assay on C. albicans SC5314 (1.0 mg/kg i.p. once daily for 4 days) turned out to be 8.5 days; in the assay on C. albicans SC5314 (3.0 mg/kg i.p. once daily for 4 days) it was 20 days. The “increase of the median survival time of infected mice” value in the assay on C. albicans SC5314 (versus vehicle (median survival 5 days)) amounted to 4 fold. Further, the “GI50 level” value in the assay on HCC2998/colon carcinoma (HCC2998/colon carcinoma, 48 hours) is “nanomolar or picomolar level”. The same compound returned a GI50 in the assay with HCC2998/colon carcinoma (Homo sapiens, HCC-2998, Colon cancer, 48 h) of 0.0603 µM. In the assay with Aspergillus fumigatus, the “antifungal activity in disk diffusion assay” value is recorded as “active”. In addition, the “ZOI (zone of inhibition of fungal growth calculated for each MEC)” value in the assay with Aspergillus fumigatus (at the MEC, 24 hours of incubation) was 2.7 mm. Besides, the “MEC (minimum effective concentration)” value in the assay on Aspergillus fumigatus (disk diffusion, 24 hours of incubation) amounted to 2.5 µg/mL.
